Values of other authors, collected in paper PMC9516332 (Frontiers in Oncology, 2022).
Read-outs that look alike come from different tables or passages of the source.

Tests used:
Details in all cases: cited from earlier work
[1] = biological target: T1, panel of 255 wild-type kinases (Homo sapiens, UniProt O14965)
T1 sequence (O14965 1-403): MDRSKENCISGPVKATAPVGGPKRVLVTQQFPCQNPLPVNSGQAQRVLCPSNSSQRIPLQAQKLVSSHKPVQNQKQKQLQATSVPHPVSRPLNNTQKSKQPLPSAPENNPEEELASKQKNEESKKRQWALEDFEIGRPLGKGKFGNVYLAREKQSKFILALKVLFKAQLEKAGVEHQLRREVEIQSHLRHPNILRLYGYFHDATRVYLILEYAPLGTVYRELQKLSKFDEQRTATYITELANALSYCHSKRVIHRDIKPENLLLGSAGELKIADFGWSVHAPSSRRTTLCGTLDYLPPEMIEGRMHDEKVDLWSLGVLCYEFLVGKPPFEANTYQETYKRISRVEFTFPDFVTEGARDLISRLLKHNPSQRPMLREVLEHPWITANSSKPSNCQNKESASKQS

[2] = biological target: panel of 255 wild-type kinases (Homo sapiens, UniProt P50613)
[3] = biological target: T2, panel of 255 wild-type kinases (Homo sapiens, UniProt Q13237)
T2 sequence (Q13237 1-762): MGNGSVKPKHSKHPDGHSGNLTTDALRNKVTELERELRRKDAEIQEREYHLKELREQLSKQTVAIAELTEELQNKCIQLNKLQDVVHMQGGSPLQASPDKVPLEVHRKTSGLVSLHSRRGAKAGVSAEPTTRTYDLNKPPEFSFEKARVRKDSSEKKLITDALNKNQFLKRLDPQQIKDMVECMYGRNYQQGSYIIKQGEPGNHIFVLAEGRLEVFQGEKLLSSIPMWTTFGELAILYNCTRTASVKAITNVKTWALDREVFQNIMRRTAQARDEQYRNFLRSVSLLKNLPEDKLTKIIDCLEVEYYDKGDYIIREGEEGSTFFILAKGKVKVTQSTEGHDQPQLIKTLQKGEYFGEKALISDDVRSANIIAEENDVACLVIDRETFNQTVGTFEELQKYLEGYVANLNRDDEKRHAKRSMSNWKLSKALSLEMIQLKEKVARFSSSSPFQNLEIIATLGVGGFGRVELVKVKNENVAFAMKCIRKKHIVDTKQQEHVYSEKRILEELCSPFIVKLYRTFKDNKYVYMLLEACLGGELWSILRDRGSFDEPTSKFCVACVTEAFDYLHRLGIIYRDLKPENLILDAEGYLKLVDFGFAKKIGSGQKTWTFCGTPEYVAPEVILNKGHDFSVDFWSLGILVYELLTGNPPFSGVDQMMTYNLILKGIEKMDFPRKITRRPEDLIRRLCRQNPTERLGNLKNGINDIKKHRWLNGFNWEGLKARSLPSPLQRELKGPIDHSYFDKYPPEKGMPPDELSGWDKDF

[4] = biological target: panel of 255 wild-type kinases (Homo sapiens, UniProt Q15418)
[5] = biological target: panel of 255 wild-type kinases (Homo sapiens, UniProt Q9H1R3)
[6] = biological target: T3, panel of 255 wild-type kinases (Homo sapiens, UniProt Q9NZJ5)
T3 sequence (Q9NZJ5 30-1116): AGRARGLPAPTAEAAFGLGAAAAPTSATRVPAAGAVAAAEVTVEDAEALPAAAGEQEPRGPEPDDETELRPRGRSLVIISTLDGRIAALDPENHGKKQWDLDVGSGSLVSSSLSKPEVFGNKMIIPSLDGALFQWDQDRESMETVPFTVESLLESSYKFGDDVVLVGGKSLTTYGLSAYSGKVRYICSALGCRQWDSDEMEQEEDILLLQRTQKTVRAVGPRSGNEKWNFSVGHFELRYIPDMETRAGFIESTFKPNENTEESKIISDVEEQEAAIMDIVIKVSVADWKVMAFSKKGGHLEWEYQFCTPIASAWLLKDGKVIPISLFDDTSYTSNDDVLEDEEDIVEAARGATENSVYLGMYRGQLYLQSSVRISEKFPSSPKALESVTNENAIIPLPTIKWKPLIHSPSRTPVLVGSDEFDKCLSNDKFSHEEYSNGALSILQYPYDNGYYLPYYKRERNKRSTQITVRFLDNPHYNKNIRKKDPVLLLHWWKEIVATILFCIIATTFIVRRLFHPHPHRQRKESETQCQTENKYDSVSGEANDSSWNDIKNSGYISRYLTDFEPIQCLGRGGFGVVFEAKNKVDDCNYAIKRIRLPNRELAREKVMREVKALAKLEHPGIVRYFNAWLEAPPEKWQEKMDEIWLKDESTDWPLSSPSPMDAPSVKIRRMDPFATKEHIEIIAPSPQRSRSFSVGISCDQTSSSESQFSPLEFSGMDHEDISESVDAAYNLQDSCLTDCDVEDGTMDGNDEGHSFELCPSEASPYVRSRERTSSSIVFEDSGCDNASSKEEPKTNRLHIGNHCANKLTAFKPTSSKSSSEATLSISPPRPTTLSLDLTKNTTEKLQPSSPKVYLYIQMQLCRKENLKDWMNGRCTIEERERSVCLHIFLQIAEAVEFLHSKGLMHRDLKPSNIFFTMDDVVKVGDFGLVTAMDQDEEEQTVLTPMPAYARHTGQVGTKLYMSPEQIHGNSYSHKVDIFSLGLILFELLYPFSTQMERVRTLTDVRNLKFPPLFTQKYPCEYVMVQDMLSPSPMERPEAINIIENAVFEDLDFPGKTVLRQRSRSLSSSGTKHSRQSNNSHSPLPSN

[7] = biological target: panel of 255 wild-type kinases (Homo sapiens, UniProt Q9Y6M4)
[8] = AurA kinase assay, 1 µmol/L single concentration, ref DOI: 10.1158/1535-7163.MCT-18-0877
[9] = AurA/TPX2 kinase assay, 1 µmol/L single concentration, ref DOI: 10.1158/1535-7163.MCT-18-0877
[10] = CDK7/CycH/MAT1 kinase assay, 1 µmol/L single concentration, ref DOI: 10.1158/1535-7163.MCT-18-0877
[11] = CGK2 kinase assay, 1 µmol/L single concentration, ref DOI: 10.1158/1535-7163.MCT-18-0877
[12] = kinase RSK1, 1 µmol/L single concentration, ref DOI: 10.1158/1535-7163.MCT-18-0877
[13] = kinase skMLCK, 1 µmol/L single concentration, ref DOI: 10.1158/1535-7163.MCT-18-0877
[14] = kinase PEK, 1 µmol/L single concentration, ref DOI: 10.1158/1535-7163.MCT-18-0877
[15] = kinase CK1γ3, 1 µmol/L single concentration, ref DOI: 10.1158/1535-7163.MCT-18-0877
[16] = CDK7/CycH/MAT1 kinase assay, 1 µmol/L single concentration, ref DOI: 10.1371/journal.pone.0092146
[17] = CGK2 kinase assay, 1 µmol/L single concentration, ref DOI: 10.1371/journal.pone.0092146
[18] = kinase RSK1, 1 µmol/L single concentration, ref DOI: 10.1371/journal.pone.0092146
[19] = kinase PEK, 1 µmol/L single concentration, ref DOI: 10.1371/journal.pone.0092146
[20] = kinase CK1γ3, 1 µmol/L single concentration, ref DOI: 10.1371/journal.pone.0092146
[21] = kinase skMLCK, 1 µmol/L single concentration, ref DOI: 10.1371/journal.pone.0092146
[22] = AurA kinase assay, 1 µmol/L single concentration, ref DOI: 10.1371/journal.pone.0092146
[23] = AurA/TPX2 kinase assay, 1 µmol/L single concentration, ref DOI: 10.1371/journal.pone.0092146

| Compound | %-inhibition AurA [1, 8] | %-inhibition AurA/TPX2 [1, 9] | %-inhibition CDK7/CycH/MAT1 [2, 10] | %-inhibition CGK2 [3, 11] | %-inhibition at 1 µmol/L, RSK1 [4, 12] | %-inhibition at 1 µmol/L, skMLCK [5, 13] | %-inhibition at 1 µmol/L, PEK [6, 14] | %-inhibition at 1 µmol/L, CK1γ3 [7, 15] | %-inhibition CGK2 [3, 17] | other results |
| --- | --- | --- | --- | --- | --- | --- | --- | --- | --- | --- |
| O=C(c1ccc(F)c(F)c1Nc1ccc(I)cc1F)N1CC(O)([C@@H]2CCCCN2)C1 [cobimetinib] | -0.696% | -1.88% | 6% | 0.273% | 1.39% | -10% | 5% | 6% | – | – |
| CO[C@@H]1[C@H](N(C)C(=O)c2ccccc2)C[C@H]2O[C@]1(C)n1c3ccccc3c3c4c(c5c6ccccc6n2c5c31)C(=O)NC4 [midostaurin] | – | – | 10% | – | 98% | 0.93% | 11% | -1.25% | – | %-inhibition AurA [1]: 100%; %-inhibition AurA/TPX2 [1]: 91% |
| C=CC(=O)N1CCC[C@@H](n2nc(-c3ccc(Oc4ccccc4)cc3)c3c(N)ncnc32)C1 [ibrutinib] | 30% | -2.33% | 5% | -1.77% | 5.47% | -17% | 7.47% | 4% | – | – |
| C[C@@H](Oc1cc(-c2cnn(C3CCNCC3)c2)cnc1N)c1c(Cl)ccc(F)c1Cl [crizotinib] | – | – | – | – | – | – | – | – | -0.915% | %-inhibition CDK7/CycH/MAT1 [2, 16]: 58%; %-inhibition at 1 µmol/L, RSK1 [4, 18]: -5%; %-inhibition at 1 µmol/L, PEK [6, 19]: 1.1%; %-inhibition at 1 µmol/L, CK1γ3 [7, 20]: 4% |
| Cc1cc(Nc2ncc(Cl)c(Nc3ccccc3S(=O)(=O)C(C)C)n2)c(OC(C)C)cc1C1CCNCC1 [ceritinib] | 12% | 2.84% | 45% | 14% | 75% | -9% | 9.5% | 11% | – | – |
| CC(C)(C)c1nc(-c2cccc(NS(=O)(=O)c3c(F)cccc3F)c2F)c(-c2ccnc(N)n2)s1 [dabrafenib] | – | – | – | – | – | – | – | – | -1.38% | %-inhibition at 1 µmol/L, skMLCK [5, 21]: 0.52% |
| C=CC(=O)Nc1cc(Nc2nccc(-c3cn(C)c4ccccc34)n2)c(OC)cc1N(C)CCN(C)C [osimertinib] | 9% | 7.38% | 8.57% | 11% | 42% | -4% | 7% | 13% | – | – |
| CC#CC(=O)N1CCC[C@H]1c1nc(-c2ccc(C(=O)Nc3ccccn3)cc2)c2c(N)nccn12 [acalabrutinib] | 2.34% | -4.71% | 5% | 1.55% | 3.57% | -17% | 8% | -15% | – | – |
| COc1cc(N2CCC(N3CCN(C)CC3)CC2)ccc1Nc1ncc(Cl)c(Nc2ccccc2P(C)(C)=O)n1 [brigatinib] | – | – | – | – | – | – | – | – | – | %-inhibition AurA [1]: 79%; %-inhibition AurA/TPX2 [1]: 74%; %-inhibition CDK7/CycH/MAT1 [2]: 55%; %-inhibition CGK2 [3]: 37%; %-inhibition at 1 µmol/L, RSK1 [4]: 98%; %-inhibition at 1 µmol/L, skMLCK [5]: -6%; %-inhibition at 1 µmol/L, PEK [6]: 18%; %-inhibition at 1 µmol/L, CK1γ3 [7]: 0.829% |
| CCCS(=O)(=O)Nc1ccc(F)c(C(=O)c2c[nH]c3ncc(-c4ccc(Cl)cc4)cc23)c1F [vemurafenib] | – | – | – | – | – | – | – | – | -2.26% | %-inhibition AurA [1, 22]: 23%; %-inhibition AurA/TPX2 [1, 23]: -2.59%; %-inhibition CDK7/CycH/MAT1 [2, 16]: 0.137%; %-inhibition at 1 µmol/L, RSK1 [4, 18]: -1.32%; %-inhibition at 1 µmol/L, skMLCK [5, 21]: 53%; %-inhibition at 1 µmol/L, PEK [6, 19]: 11%; %-inhibition at 1 µmol/L, CK1γ3 [7, 20]: 2.14% |
| CCc1cc2c(cc1N1CCC(N3CCOCC3)CC1)C(C)(C)c1[nH]c3cc(C#N)ccc3c1C2=O [alectinib] | 5% | -3% | -12% | 7.53% | 15% | -11% | 9% | 0.159% | – | – |
| CC(=O)Nc1cccc(-n2c(=O)n(C3CC3)c(=O)c3c(Nc4ccc(I)cc4F)n(C)c(=O)c(C)c32)c1 [trametinib] | – | – | – | – | – | – | – | – | -2.61% | %-inhibition AurA [1, 22]: -2%; %-inhibition AurA/TPX2 [1, 23]: -5.37%; %-inhibition CDK7/CycH/MAT1 [2, 16]: -6%; %-inhibition at 1 µmol/L, RSK1 [4, 18]: -10%; %-inhibition at 1 µmol/L, skMLCK [5, 21]: -3.34%; %-inhibition at 1 µmol/L, PEK [6, 19]: 1.13% |
